US20240076624A1, “Methods and Tools for Studying Enteroendocrine Cells” (Koninklijke Nederlandse Akademie Van Wetenschappen, priority 2020, published 2024)

Experiments:
OR51E2 [1] = target: T1, OR51E2 (Homo sapiens, UniProt Q9H255); assay: Calcium sensor (Tq-Ca-FLITS) response in TPH1-mClover NEUROG3-dTomato organoid; assay type: cell-based; conditions: for calcium flux in EECs (TPH1-negative): colon-derived reporter organoid
T1 construct: endogenous in cells; host or cells: human intestinal organoids NEUROG3-dTomato / TPH1-mClover carrying the Tq-Ca-FLITS calcium sensor, differentiated to EECs
T1 sequence (Q9H255 1-320): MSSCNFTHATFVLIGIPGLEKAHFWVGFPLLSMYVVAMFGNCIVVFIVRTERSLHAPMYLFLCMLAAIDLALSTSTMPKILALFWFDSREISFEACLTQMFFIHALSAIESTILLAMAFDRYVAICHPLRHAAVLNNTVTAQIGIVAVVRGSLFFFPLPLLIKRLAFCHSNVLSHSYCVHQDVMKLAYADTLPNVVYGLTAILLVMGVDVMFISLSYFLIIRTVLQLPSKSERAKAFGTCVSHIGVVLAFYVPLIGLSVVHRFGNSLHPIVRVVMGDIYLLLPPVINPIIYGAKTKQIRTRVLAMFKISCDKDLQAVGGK
Description: (F) Fluorescent image of a TPH1^mClover NEUROG3^dTomato organoid that is transduced with the turquoise calcium sensor Tq-Ca-FLITS, containing a nuclear localization signal. Five examples of nuclei are highlighted of which the calcium response is followed after treatment with Beta-ionone, the agonist of OR51E2.
For example, in some embodiments, the compound is beta-ionone and the sensor is a calcium sensor. Beta-ionone is an agonist of the olfactory receptor OR51E2. The mouse homologue of OR51E2 had been reported to be expressed in mouse EECs (Fleischer et al., 2015; Jovancevic et al., 2017). However, prior to the invention, it was not known which human EECs OR51E2 is expressed in. Olfactory genes in humans and mice are very different as these genes quickly evolve. Therefore, the homology of these sequences tend to be low, and it is difficult to project expression profiles of mouse olfactory genes on humans. The inventors have found two olfactory receptors that are abundantly expressed in human EECs, OR51E1 and OR51E2. […] This provided proof-of-concept that sensors combined with hormone reporters from EEC-TAG can aid the study of functional signalling responses in human EEC subtypes. Thus, calcium reporters can be combined as a measure of hormone activation with the knowledge of the expression levels of targets such as olfactory receptors in subpopulations of EECs. Thus, the use of a reporter organoid in conjunction with a calcium reporter allows for screening for activators of targets such as cell surface receptors, e.g. olfactory receptors, and such methods are provided herein. In some embodiments, the calcium assay is conducted in an intestinal organoid which is not itself a reporter organoid and a reporter organoid is used to validate which EEC subtype the calcium is being activated in and so which hormones are being activated. […] This can be extrapolated to which EEC subtype hormone secretion is being activated in.

[2] = target: T2, olfactory receptor OR51E2 (Homo sapiens, UniProt Q9H255); assay: Live cell imaging of calcium reporter (Tq-Ca-FLITS) organoids; assay type: cell-based; conditions: NEUROG3-dTomato TPH1-mClover CaFLITS-Turquoise reporter organoids; FIG. 2F
T2 construct: endogenous in cells; host or cells: human intestinal organoids NEUROG3-dTomato / TPH1-mClover carrying the Tq-Ca-FLITS calcium sensor, differentiated to EECs
T2 sequence (Q9H255 1-320): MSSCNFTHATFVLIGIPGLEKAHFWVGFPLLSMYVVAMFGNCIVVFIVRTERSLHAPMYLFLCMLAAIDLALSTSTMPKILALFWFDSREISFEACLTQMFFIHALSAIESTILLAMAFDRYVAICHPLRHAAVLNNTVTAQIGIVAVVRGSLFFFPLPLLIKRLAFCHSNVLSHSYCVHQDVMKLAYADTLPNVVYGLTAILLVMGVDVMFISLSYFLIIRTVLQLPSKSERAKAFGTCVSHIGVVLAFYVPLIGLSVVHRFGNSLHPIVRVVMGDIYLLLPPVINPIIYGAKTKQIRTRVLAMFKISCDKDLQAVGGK
Description: A red calcium probe (pTorPE-R-GECO1, addgene plasmid #32465) was used as a template to engineer a cyan genetically encoded calcium probe. The cpApple was replaced with a circular permuted mTurquoise. The resulting probe was dubbed Tq-Ca-FLITS (Turquoise Calcium Fluorescence Lifetime Indicator for Truthful Sensing). A triple nuclear localization signal (3×nls) was added to the N-terminus of the calcium probe to simplify analysis. Details of the engineering and characterization will be described elsewhere (Van der Linden et al., in preparation).
PCRs were performed on Tq-Ca-FLITS (Fw […]atgggatcagatccaaaaaagaagag, Rev […]c[…]) as well as H2B-mMaroon (Fw […], Rev […]attaagtttgtgcccc) and the two PCRs were cloned into a lentiviral vector using InPhusion Cloning (Takara), to produce H2B-mMaroon-P2A-Tq-Ca-FLITS, two simultaneously expressed cistrons separated by a de-optimized P2A (Lo et al., 2015).
H2B-mMaroon-P2A-Tq-Ca-FLITS organoids were imaged on a Leica SP8 confocal laser scanning microscope, equipped with Argon laser and White Light Laser, the latter allowing spectral flexibility for optimal visualization of all fluorophores. […]

OR51E2 [3] = target: T1, OR51E2; conditions: HEK cells after overexpression of OR51E2 (Pietraszewska-Bogiel et al., 2019); cited from earlier work
MLK-7K = conditions: target MLK-7K; cited from earlier work
[4] = system: enteroendocrine cell differentiated organoids; assay: Hormone expression in EEC differentiated organoids treated with Midkine; assay type: cell-based, human

In the case of `CC(=O)/C=C/C1=C(C)CCCC1(C)C` [Beta-ionone], the “calcium flux in non-EEC” value (OR51E2 [1]) is reported as “does not show calcium increases”, the “calcium flux in EECs (TPH1-negative)” value (OR51E2 [1]) is reported as “increases in calcium flux” and the “calcium flux in EECs (TPH1-negative)” value (OR51E2 [1]; listed as beta-ionone) is reported as “calcium sparking”. For the same molecule, the “calcium reporter response in EECs” value [2] was “calcium sparking in EECs that were TPH1-negative” and the calcium response (OR51E2 [3]) was “elicit a calcium response”.

In the case of `c1ccc(-c2n[nH]cc2-c2ccnc3ccccc23)nc1` [LY-36494, 4-[3-(2-Pyridinyl)-1H-pyrazol-4-yl]-quinoline], the IC50 (MLK-7K) is listed as 1400 nM.

B1: Midkine: heparin-binding growth factor, cytokine; sequence SEQ ID NO:69 (protein, listed as Homo sapiens)
chain: VAKKKDKVKKGGPGSECAEWAWGPCTPSSKDCGVGFREGTCGAQTQRIRCRVPCNWKKEFGADCKYKFENWGACDGGTGTKVRQGTLKKARYNAQCQETIRVTKPCTPKTKAKAKAKKGKGKD
With B1 the “expression of EEC hormones” value [4] was “reduces the expression of all hormones”.
